Source: patent publication US20250163104A1, “MACROCYCLIC IMMUNOMODULATORS” (priority 2021, published 2025)
*1 amine or outer side, *2 acyl side, *3 side chain or, on linkers, in order; H or OH if unused. Where a SMILES comes first, the peptide text is derived from it. Bridges are numbered along the chain shown (N, C = ends). [ ]: non-standard residue; d: D form. The star is where a group is joined. X3 = O=C([C@H](CCCNC[C@@H](O)[C@H](O)[C@H](O)[C@@H](O)[C@H](O)CO)N[*:1])[*:2]; Phe(4-CF3) = N[C@@H](Cc1ccc(C(F)(F)F)cc1)C(=O)O; Phe(4-COOH) = N[C@@H](Cc1ccc(C(=O)O)cc1)C(=O)O; Bip = N[C@@H](Cc1ccc(-c2ccccc2)cc1)C(=O)O; Phe(3-Me) = Cc1cccc(C[C@H](N)C(=O)O)c1; Val(3-OH) = CC(C)(O)[C@H](N)C(=O)O; Cha = N[C@@H](CC1CCCCC1)C(=O)O; NMeNle = CCCC[C@H](NC)C(=O)O; Carboxymethyl = O=C(O)C*; NMeA = CN[C@@H](C)C(=O)O; NMeAib = CNC(C)(C)C(=O)O; Nle = CCCC[C@H](N)C(=O)O; Orn = NCCC[C@H](N)C(=O)O; Pra = C#CC[C@H](N)C(=O)O; Dab = NCC[C@H](N)C(=O)O; Nva = CCC[C@H](N)C(=O)O; CF3 = FC(F)(F)*

What follows are compounds tested against T1, human PD-1 / PD-L1-Ig binding on Jurkat cell line over-expressing human PD-1 (Jurkat-PD-1) (Homo sapiens, UniProt Q15116) (assay: Jurkat-PD-1 Cell Binding High-Content Screening Assay (CBA)). Conditions: Jurkat-PD-1 cells, PE-labeled PD-L1-Ig 20 nM final; read-out: Jurkat HPD1_PDL1 IC50.
T1 construct: expressed in transfected cells; host or cells: Jurkat
T1 sequence (Q15116 25-288): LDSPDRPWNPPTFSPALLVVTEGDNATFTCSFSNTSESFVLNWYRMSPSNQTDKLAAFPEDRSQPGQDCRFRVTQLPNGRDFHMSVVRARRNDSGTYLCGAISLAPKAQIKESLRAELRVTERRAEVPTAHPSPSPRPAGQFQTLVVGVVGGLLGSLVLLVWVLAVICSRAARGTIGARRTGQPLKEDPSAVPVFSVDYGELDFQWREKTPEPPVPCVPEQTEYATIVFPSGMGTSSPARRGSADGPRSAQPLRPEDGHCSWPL
Assay type: cell-based
Outline: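 Read-out: high-content imaging of PE-tagged PD-L1-Ig bound to Jurkat cells overexpressing human PD-1, after fixation with 4% paraformaldehyde and Hoechst 33342 nuclear staining. Ligand was used at 20 nM final for 1 hour, after a 2 h compound exposure at 37° C in serum-containing DMEM.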
`C#CC[C@H](NC(=O)[C@@H]1CSCC(=O)N[C@@H](CCN)C(=O)N[C@@H](Cc2ccc(OCC(=O)O)cc2)C(=O)N[C@@H](CC(=O)O)C(=O)N[C@@H](Cc2cccc(C)c2)C(=O)N[C@@H](Cc2ccc(OCC(=O)O)cc2)C(=O)N[C@@H](Cc2ccc(-c3ccccc3)cc2)C(=O)N[C@@H](Cc2ccc(OCC(=O)O)cc2)C(=O)N[C@@H](CCCN)C(=O)N[C@H](CC(C)C)C(=O)N[C@@H](CCN)C(=O)N[C@@H](CC2CCCCC2)C(=O)N[C@@H](C(C)(C)O)C(=O)N[C@@H](CCCN)C(=O)N1)C(=O)O` [Compound 2686] ({CH2CO}-[Dab]Y(Carboxymethyl)D[Phe(3-Me)]Y(Carboxymethyl)[Bip]Y(Carboxymethyl)[Orn][dL][Dab][Cha][Val(3-OH)][Orn]C[Pra]-OH; thioether N-14) gave an IC50 of 33.3 nM. Work on `CCCC[C@@H]1NC(=O)CSC[C@@H](C(=O)N[C@@H](CCN)C(N)=O)NC(=O)[C@H](CO)NC(=O)[C@H](C(C)(C)O)NC(=O)[C@H](CC2CCCCC2)NC(=O)[C@H](CCN)NC(=O)[C@@H](CC(C)C)NC(=O)[C@H](CCCN)NC(=O)[C@H](Cc2ccc(OCC(=O)O)cc2)NC(=O)[C@H](Cc2ccc(-c3ccccc3)cc2)NC(=O)[C@H](Cc2ccc(OCC(=O)O)cc2)NC(=O)[C@H](Cc2cccc(C)c2)NC(=O)[C@H](CC(=O)O)NC(=O)[C@H](Cc2ccc(OCC(=O)O)cc2)NC1=O` [Compound 2687] ({CH2CO}-[Nle]Y(Carboxymethyl)D[Phe(3-Me)]Y(Carboxymethyl)[Bip]Y(Carboxymethyl)[Orn][dL][Dab][Cha][Val(3-OH)]SC[Dab]-NH2; thioether N-14) yielded an IC50 of 0.4 nM. `CCCC[C@H]1C(=O)N[C@@H](Cc2ccc(C(=O)O)cc2)C(=O)N[C@@H](CC(=O)O)C(=O)N[C@@H](Cc2cccc(C)c2)C(=O)N[C@@H](Cc2ccc(OCC(=O)O)cc2)C(=O)N[C@@H](Cc2ccc(-c3ccccc3)cc2)C(=O)N[C@@H](Cc2ccc(OCC(=O)O)cc2)C(=O)N[C@@H](CCCN)C(=O)N[C@H](CC(C)C)C(=O)N[C@@H](CCN)C(=O)N[C@@H](CC2CCCCC2)C(=O)N[C@@H](C(C)(C)O)C(=O)N[C@@H](CCC(=O)O)C(=O)N[C@H](C(=O)N[C@@H](CCN)C(N)=O)CSCC(=O)N1C` [Compound 2688] ({CH2CO}-[NMeNle][Phe(4-COOH)]D[Phe(3-Me)]Y(Carboxymethyl)[Bip]Y(Carboxymethyl)[Orn][dL][Dab][Cha][Val(3-OH)]EC[Dab]-NH2; thioether N-14) gave an IC50 of 41.3 nM. With `Cc1cccc(C[C@@H]2NC(=O)[C@H](CC(=O)O)NC(=O)[C@H](Cc3ccc(C(=O)O)cc3)NC(=O)C(C)(C)N(C)C(=O)CSC[C@@H](C(=O)N[C@@H](CCN)C(N)=O)NC(=O)[C@H](CCC(=O)O)NC(=O)[C@H](C(C)(C)O)NC(=O)[C@H](CC3CCCCC3)NC(=O)[C@H](CCN)NC(=O)[C@@H](CC(C)C)NC(=O)[C@H](CCCN)NC(=O)[C@H](Cc3ccc(OCC(=O)O)cc3)NC(=O)[C@H](Cc3ccc(-c4ccccc4)cc3)NC(=O)[C@H](Cc3ccc(OCC(=O)O)cc3)NC2=O)c1` [Compound 2689] ({CH2CO}-[NMeAib][Phe(4-COOH)]D[Phe(3-Me)]Y(Carboxymethyl)[Bip]Y(Carboxymethyl)[Orn][dL][Dab][Cha][Val(3-OH)]EC[Dab]-NH2; thioether N-14) the IC50 was 411 nM. Work on `Cc1cccc(C[C@@H]2NC(=O)[C@H](CC(=O)O)NC(=O)[C@H](Cc3ccc(C(=O)O)cc3)NC(=O)[C@H](C)N(C)C(=O)CSC[C@@H](C(=O)N[C@@H](CCN)C(N)=O)NC(=O)[C@H](CCC(=O)O)NC(=O)[C@H](C(C)(C)O)NC(=O)[C@H](CC3CCCCC3)NC(=O)[C@H](CCN)NC(=O)[C@@H](CC(C)C)NC(=O)[C@H](CCCN)NC(=O)[C@H](Cc3ccc(OCC(=O)O)cc3)NC(=O)[C@H](Cc3ccc(-c4ccccc4)cc3)NC(=O)[C@H](Cc3ccc(OCC(=O)O)cc3)NC2=O)c1` [Compound 2690] ({CH2CO}-[NMeA][Phe(4-COOH)]D[Phe(3-Me)]Y(Carboxymethyl)[Bip]Y(Carboxymethyl)[Orn][dL][Dab][Cha][Val(3-OH)]EC[Dab]-NH2; thioether N-14) yielded an IC50 of 481 nM. In the case of `Cc1cccc(C[C@@H]2NC(=O)[C@H](CC(=O)O)NC(=O)[C@H](Cc3ccc(OCC(=O)O)cc3)NC(=O)[C@H](Cc3ccc(C(F)(F)F)cc3)NC(=O)CSC[C@@H](C(=O)N[C@@H](CCN)C(N)=O)NC(=O)[C@H](CCC(=O)O)NC(=O)[C@H](C(C)(C)O)NC(=O)[C@H](CC3CCCCC3)NC(=O)[C@H](CCN)NC(=O)[C@@H](CC(C)C)NC(=O)[C@H](CCCN)NC(=O)[C@H](Cc3ccc(OCC(=O)O)cc3)NC(=O)[C@H](Cc3ccc(-c4ccccc4)cc3)NC(=O)[C@H](Cc3ccc(OCC(=O)O)cc3)NC2=O)c1` [Compound 2691] ({CH2CO}-[Phe(4-CF3)]Y(Carboxymethyl)D[Phe(3-Me)]Y(Carboxymethyl)[Bip]Y(Carboxymethyl)[Orn][dL][Dab][Cha][Val(3-OH)]EC[Dab]-NH2; thioether N-14), the IC50 is reported as 6.8 nM. `COc1ccc(C[C@@H]2NC(=O)CSC[C@@H](C(=O)N[C@@H](CCN)C(N)=O)NC(=O)[C@H](CCC(=O)O)NC(=O)[C@H](C(C)(C)O)NC(=O)[C@H](CC3CCCCC3)NC(=O)[C@H](CCN)NC(=O)[C@@H](CC(C)C)NC(=O)[C@H](CCCN)NC(=O)[C@H](Cc3ccc(OCC(=O)O)cc3)NC(=O)[C@H](Cc3ccc(-c4ccccc4)cc3)NC(=O)[C@H](Cc3ccc(OCC(=O)O)cc3)NC(=O)[C@H](Cc3cccc(C)c3)NC(=O)[C@H](CC(=O)O)NC(=O)[C@H](Cc3ccc(OCC(=O)O)cc3)NC2=O)cc1` [Compound 2692] ({CH2CO}-Y(Me)Y(Carboxymethyl)D[Phe(3-Me)]Y(Carboxymethyl)[Bip]Y(Carboxymethyl)[Orn][dL][Dab][Cha][Val(3-OH)]EC[Dab]-NH2; thioether N-14) was tested, and the IC50 was 4.7 nM. In the case of `Cc1cccc(C[C@@H]2NC(=O)[C@H](CC(=O)O)NC(=O)[C@H](Cc3ccc(OC(F)(F)F)cc3)NC(=O)[C@H](CCN)NC(=O)CSC[C@@H](C(=O)N[C@@H](CCN)C(N)=O)NC(=O)[C@H](CCC(=O)O)NC(=O)[C@H](C(C)(C)O)NC(=O)[C@H](CC3CCCCC3)NC(=O)[C@H](CCN)NC(=O)[C@@H](CC(C)C)NC(=O)[C@H](CCCN)NC(=O)[C@H](Cc3ccc(OCC(=O)O)cc3)NC(=O)[C@H](Cc3ccc(-c4ccccc4)cc3)NC(=O)[C@H](Cc3ccc(OCC(=O)O)cc3)NC2=O)c1` [Compound 2693] ({CH2CO}-[Dab]Y(CF3)D[Phe(3-Me)]Y(Carboxymethyl)[Bip]Y(Carboxymethyl)[Orn][dL][Dab][Cha][Val(3-OH)]EC[Dab]-NH2; thioether N-14), the IC50 is reported as 42.4 nM. In the case of `Cc1cccc(C[C@@H]2NC(=O)[C@H](CC(=O)O)NC(=O)[C@H](Cc3ccc(OCC(=O)O)cc3)NC(=O)[C@H](CCN)NC(=O)CSC[C@@H](C(=O)N[C@@H](CCN)C(N)=O)NC(=O)[C@H](CCC(=O)O)NC(=O)[C@H](C(C)(C)O)NC(=O)[C@H](CC3CCCCC3)NC(=O)[C@H](CCN)NC(=O)[C@@H](CC(C)C)NC(=O)[C@H](CCCN)NC(=O)[C@H](Cc3ccc(OC(F)(F)F)cc3)NC(=O)[C@H](Cc3ccc(-c4ccccc4)cc3)NC(=O)[C@H](Cc3ccc(OCC(=O)O)cc3)NC2=O)c1` [Compound 2694] ({CH2CO}-[Dab]Y(Carboxymethyl)D[Phe(3-Me)]Y(Carboxymethyl)[Bip]Y(CF3)[Orn][dL][Dab][Cha][Val(3-OH)]EC[Dab]-NH2; thioether N-14), the IC50 is reported as 16.5 nM. Work on `C#CC[C@H](NC(=O)[C@H](C)NC(=O)[C@@H]1CSCC(=O)N[C@@H](CCN)C(=O)N[C@@H](Cc2ccc(OCC(=O)O)cc2)C(=O)N[C@@H](CC(=O)O)C(=O)N[C@@H](Cc2cccc(C)c2)C(=O)N[C@@H](Cc2ccc(OCC(=O)O)cc2)C(=O)N[C@@H](Cc2ccc(-c3ccccc3)cc2)C(=O)N[C@@H](Cc2ccc(OCC(=O)O)cc2)C(=O)N[C@@H](CCCN)C(=O)N[C@H](CC(C)C)C(=O)N[C@@H](CCN)C(=O)N[C@@H](CC2CCCCC2)C(=O)N[C@@H](C(C)(C)O)C(=O)N[C@@H](CCCC)C(=O)N1)C(=O)O` [Compound 2696] ({CH2CO}-[Dab]Y(Carboxymethyl)D[Phe(3-Me)]Y(Carboxymethyl)[Bip]Y(Carboxymethyl)[Orn][dL][Dab][Cha][Val(3-OH)][Nle]CA[Pra]-OH; thioether N-14) yielded an IC50 of 17.1 nM. `C#CC[C@H](NC(=O)[C@H](C)NC(=O)[C@@H]1CSCC(=O)N[C@@H](CCN)C(=O)N[C@@H](Cc2ccc(OCC(=O)O)cc2)C(=O)N[C@@H](CC(=O)O)C(=O)N[C@@H](Cc2cccc(C)c2)C(=O)N[C@@H](Cc2ccc(OCC(=O)O)cc2)C(=O)N[C@@H](Cc2ccc(-c3ccccc3)cc2)C(=O)N[C@@H](Cc2ccc(OCC(=O)O)cc2)C(=O)N[C@@H](CCCN)C(=O)N[C@H](CC(C)C)C(=O)N[C@@H](CCN)C(=O)N[C@@H](CC2CCCCC2)C(=O)N[C@@H](C(C)(C)O)C(=O)N[C@@H](CCC)C(=O)N1)C(=O)O` [Compound 2697] ({CH2CO}-[Dab]Y(Carboxymethyl)D[Phe(3-Me)]Y(Carboxymethyl)[Bip]Y(Carboxymethyl)[Orn][dL][Dab][Cha][Val(3-OH)][Nva]CA[Pra]-OH; thioether N-14) gave an IC50 of 26.2 nM. `C#CC[C@H](NC(=O)[C@@H]1CSCC(=O)N[C@@H](CCC)C(=O)N[C@@H](Cc2ccc(OCC(=O)O)cc2)C(=O)N[C@@H](CC(=O)O)C(=O)N[C@@H](Cc2cccc(C)c2)C(=O)N[C@@H](Cc2ccc(OCC(=O)O)cc2)C(=O)N[C@@H](Cc2ccc(-c3ccccc3)cc2)C(=O)N[C@@H](Cc2ccc(OCC(=O)O)cc2)C(=O)N[C@@H](CCCNC[C@@H](O)[C@H](O)[C@H](O)[C@@H](O)[C@H](O)CO)C(=O)N[C@H](CC(C)C)C(=O)N[C@@H](CCC)C(=O)N[C@@H](CC2CCCCC2)C(=O)N[C@@H](C(C)C)C(=O)N[C@@H](CCC(=O)O)C(=O)N1)C(=O)O` [Compound 2698] ({CH2CO}-[Nva]Y(Carboxymethyl)D[Phe(3-Me)]Y(Carboxymethyl)[Bip]Y(Carboxymethyl)[X3][dL][Nva][Cha]VEC[Pra]-OH; thioether N-14) gave an IC50 of 129 nM.
